{"source": "patent US9040713B2", "about": "“Methods of managing blood sugar levels and compositions related thereto” (EMORY UNIVERSITY, priority 2010, dated 2015)", "key": {"[1]": {"tested_on": "MCF7 cells", "experiment": "Proliferation of MCF7 cells", "format": "cell-based"}, "[2]": {"target": "GFP-IRTK R2", "experiment": "In vitro kinase assay of IRTK/IGF-1R kinase hybrids", "format": "biochemical, human", "conditions": "R2 region of IRTK replaced with IGF-1R", "procedure": "(§1) Parental CHO cells were used as a negative control (Bottom panel). The fluorescence-labeled cells were analyzed on flow cytometry. (B) 4524-E7 protects IRTK from proteolysis. GST-IRTK was subjected to limited trypsin or chymotrypsin digestion in the presence of 4524-E7 (50 μM), ATPyS (5 μM) or both at 37° C. for 5 min. The reaction mixture was resolved by SDS-PAGE, followed by silver staining Cleaved fragments were asterisked. (C) 4524-E7 increases IRTK activity in vitro. Recombinant GST-IRTK, GST-IGFRTK, and GST-EGFRTK were incubated with different concentrations of 4524-E7 or 10 μM 2—NH2-NQ and the kinase activity was examined by monitoring the phosphorylation of histone H2B. (E) In vitro kinase activity of various IRTK/IGF-1R kinase hybrids. The GFP-tagged kinases were expressed in HEK293, immunoprecipitated and incubated with different concentrations of 4524-E7 as indicated. […] Expressions of the kinases were also verified (lower panel).\nTo test if these regions are the action sites of 4524-E7, several GFP-tagged hybrid kinases were generated with R1 (GFP-IRTK R1), R2 (GFP-IRTK R2) or both (GFP-IRTK R1+R2) regions of IRTK and replaced with the corresponding sequence of IGF-1R. These mutants were then used to perform the in vitro kinase assay in the presence of 4524-E7. […]"}, "[3]": {"target": "FGFR1 (Homo sapiens, UniProt P11362)", "sequence (P11362 22-822, species assumed)": "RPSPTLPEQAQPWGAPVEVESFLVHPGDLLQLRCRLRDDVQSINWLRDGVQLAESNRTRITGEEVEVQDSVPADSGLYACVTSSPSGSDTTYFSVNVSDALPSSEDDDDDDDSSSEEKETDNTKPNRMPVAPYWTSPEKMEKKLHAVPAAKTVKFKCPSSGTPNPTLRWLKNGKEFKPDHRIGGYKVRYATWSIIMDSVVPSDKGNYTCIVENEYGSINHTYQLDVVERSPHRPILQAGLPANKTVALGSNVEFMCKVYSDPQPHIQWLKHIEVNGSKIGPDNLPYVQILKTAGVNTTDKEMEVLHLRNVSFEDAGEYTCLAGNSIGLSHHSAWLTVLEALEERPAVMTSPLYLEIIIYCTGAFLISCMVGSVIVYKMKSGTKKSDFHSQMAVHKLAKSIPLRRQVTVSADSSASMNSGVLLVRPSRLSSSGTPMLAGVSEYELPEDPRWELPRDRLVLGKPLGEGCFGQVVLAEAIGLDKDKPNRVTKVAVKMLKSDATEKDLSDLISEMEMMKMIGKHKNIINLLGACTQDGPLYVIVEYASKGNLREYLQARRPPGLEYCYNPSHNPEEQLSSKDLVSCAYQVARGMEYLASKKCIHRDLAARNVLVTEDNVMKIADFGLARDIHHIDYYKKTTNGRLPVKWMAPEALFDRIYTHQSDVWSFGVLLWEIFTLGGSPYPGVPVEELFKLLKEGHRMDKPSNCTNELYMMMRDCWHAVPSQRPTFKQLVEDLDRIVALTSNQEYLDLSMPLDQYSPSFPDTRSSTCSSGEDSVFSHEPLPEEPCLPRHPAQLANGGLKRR", "experiment": "RTK kinase profile screen assay", "format": "biochemical", "conditions": "10 μM"}, "[4]": {"target": "T1, GST-IGFRTK (Homo sapiens, UniProt P08069)", "T1 construct": "histone phosphorylation by recombinant IGFR or EGFR tyrosine kinase", "T1 sequence (P08069 999-1274 limits assumed)": "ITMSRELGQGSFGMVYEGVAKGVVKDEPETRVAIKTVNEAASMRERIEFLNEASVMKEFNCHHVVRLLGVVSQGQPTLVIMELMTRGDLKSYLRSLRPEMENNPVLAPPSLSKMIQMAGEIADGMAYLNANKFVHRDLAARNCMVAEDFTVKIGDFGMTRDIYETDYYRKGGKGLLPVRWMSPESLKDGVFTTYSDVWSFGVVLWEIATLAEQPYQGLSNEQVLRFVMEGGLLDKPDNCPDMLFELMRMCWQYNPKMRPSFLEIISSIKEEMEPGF", "experiment": "In vitro kinase assay (histone H2B phosphorylation)", "format": "biochemical", "conditions": "different concentrations of 4524-E7", "procedure": "as §1\n(§2) To evaluate if 4524-E7 directly binds to the IR kinase domain, a partial proteolysis assay was performed with recombinant IRTK domain using trypsin or chymotrypsin, which was used before to characterize the interaction between IR and its small molecular ligand DAQ B1. Recombinant GST-tagged IRTK with either DMSO, 50 μM 4524-E7 or ATP-γ-S, were incubated and followed by limited trypsin or chymotrypsin digestion. […]"}, "[5]": {"target": "T2, GST-EGFRTK (Homo sapiens, UniProt P00533)", "T2 construct": "histone phosphorylation by recombinant IGFR or EGFR tyrosine kinase", "T2 sequence (P00533 712-979 limits assumed)": "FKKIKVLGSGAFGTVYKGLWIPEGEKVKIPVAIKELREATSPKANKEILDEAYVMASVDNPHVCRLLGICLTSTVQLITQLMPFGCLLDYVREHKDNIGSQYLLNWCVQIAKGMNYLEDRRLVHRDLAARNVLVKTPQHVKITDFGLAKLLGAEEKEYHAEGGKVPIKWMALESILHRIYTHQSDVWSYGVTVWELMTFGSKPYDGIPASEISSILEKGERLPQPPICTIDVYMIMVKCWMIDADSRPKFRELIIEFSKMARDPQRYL", "experiment": "In vitro kinase assay (histone H2B phosphorylation)", "format": "biochemical", "conditions": "different concentrations of 4524-E7", "procedure": "as §1, §2"}}}
{"smiles": "O=C1c2ccccc2C(=O)C2SC(Nc3ccc(Cl)cc3)=NC12", "note": "(centres unmarked) [4524-E7, 2-((4-chlorophenyl)amino)naphtho[2,3-d]thiazole-4,9(3aH,9aH)-dione]", "values": [{"measurement": "proliferation of MCF7 cells", "setting": "[1]", "result": "not able to induce the proliferation of MCF7 cells"}, {"measurement": "kinase stimulatory effect on hybrid kinase", "setting": "[2]", "result": "abolishes the kinase stimulatory effect"}, {"measurement": "inhibition of FGFR1", "setting": "[3]", "result": "slightly inhibited"}, {"measurement": "IGFR tyrosine kinase activity (histone phosphorylation)", "setting": "[4]", "result": "no effect"}, {"measurement": "EGFR tyrosine kinase activity (histone phosphorylation)", "setting": "[5]", "result": "no effect"}]}
